{"source": "patent US20230174649A1", "about": "“PHARMACEUTICAL COMPOSITIONS CONTAINING ANTI-CD47 ANTIBODIES” (I-MAB BIOPHARMA US LIMITED, priority 2020, published 2023)", "format_in_all_cases": "cell-based, Human", "key": {"[1]": {"system": "macrophages", "experiment": "Macrophage Viability Assay (CellTiter-Glo)", "settings": "for Macrophage viability (CellTiter-Glo Luminescent Cell Viability Assay): 16 hours, three replicate lines", "procedure": "Then, the monocytes isolated by MACS were subsequently cultured in fresh complete medium supplemented with recombinant human granulocyte-macrophage colony-stimulating factor GM-CSF (50 ng/ml) and human recombinant IL-4 (35 ng/ml) to activate differentiated macrophages. After 6 days of culture (on day 7), cells were harvested, pooled together and counted for next use.\nThe cells from Example 2 were plated into a 96-well flat bottom plate at a density of 0.05×10^6 cells/well. After 2 hours of incubation, the macrophages were well attached to the plate. Then selected small molecule therapeutic agents were added to the well and cocultured for 16 hours. On day 8, macrophage viability was assessed by CellTiter-Glo® Luminescent Cell Viability Assay, according to the manufacture's instruction."}, "[2]": {"system": "CD47", "experiment": "FACS analysis of expression level of CD47 on tumor cell surface", "settings": "Toledo cells; for Mean Fluorescence Intensity (MFI) CD47: 12 hours", "procedure": "(§1) For FACS analysis, on the day of analysis (day 1), Toledo cells were seeded into 96 well plate and cultured at a density of 0.2×10^6 cells/well. Then the cells were treated with the selected small molecule therapeutic agents for 12 hours.\n(§2) On day 2, cells were harvested, washed twice and then re-suspended in 100 uL FACS buffer subject to FACS analysis. For detection of the expression of calreticulin and CD47, cells were incubated with anti-calreticulin antibody and commercially available anti-CD47 antibody (BD Biosciences, Catalog number: 561249) in dark at 4° C. for 30 mins.\n(§3) Then, the cells were subject to FACS analysis. Data was acquired and analyzed."}, "[3]": {"system": "Calreticulin", "experiment": "FACS analysis of expression level of calreticulin on tumor cell surface", "settings": "Toledo cells; for Mean Fluorescence Intensity (MFI) Calreticulin: 12 hours", "procedure": "as §1, §2, §3"}, "[4]": {"system": "Toledo Cells", "experiment": "FACS-based phagocytosis assay, macrophages cocultured with Toledo cells", "procedure": "FACS-based phagocytosis assays were performed to evaluate the phagocytic abilities of macrophages.\nToledo Cells (a tumor cell line, as a target) were labelled with CellTrace™ Far Red and plated into 96-well plate at a density of 0.15×10^6 cells/well for 12 hours. The Macrophages were prepared as discussed above and then labelled with CellTrace Violet. Next, the macrophages were added into the plate as an effector at an effector:target (Toledo) ratio of 1:3, giving a final density of macrophages at 0.05×10^6 cells/well. Macrophages and tumor cells were cocultured for 2-6 h at 37° C. in the presence of the indicated treatments (small molecule therapeutic agents, CD47 antibody, CD20 antibody or combinations). The incubation time depending on the phagocytosis rate, expecting phagocytosis of 5-20% cells.\nThen, cells were acquired and data were analyzed."}}, "note": "“And” between values parts separate entries of the source, which are not always exact repeats. Equal values may be shown once.", "data": [{"smiles": "Nc1ncn([C@@H]2O[C@H](CO)[C@@H](O)[C@H]2O)c(=O)n1", "note": "[Azacitidine]", "values": [{"measurement": "Macrophage viability (CellTiter-Glo Luminescent Cell Viability Assay)", "setting": "[1]; Cpd 0.002 uM", "value": "4076 and 6020 and 5860"}, {"measurement": "Macrophage viability (CellTiter-Glo Luminescent Cell Viability Assay)", "setting": "[1]; Cpd 0.008 uM", "value": "4648 and 6100 and 6132"}, {"measurement": "Macrophage viability (CellTiter-Glo Luminescent Cell Viability Assay)", "setting": "[1]; Cpd 0.04 uM", "value": "4792 and 5892 and 6380"}, {"measurement": "Macrophage viability (CellTiter-Glo Luminescent Cell Viability Assay)", "setting": "[1]; Cpd 0.2 uM", "value": "5160 and 6136 and 6440"}, {"measurement": "Macrophage viability (CellTiter-Glo Luminescent Cell Viability Assay)", "setting": "[1]; Cpd 1 uM", "value": "5140 and 6108 and 6256"}, {"measurement": "Macrophage viability (CellTiter-Glo Luminescent Cell Viability Assay)", "setting": "[1]; Cpd 5 uM", "value": "4768 and 6132 and 6032"}, {"measurement": "Macrophage viability (CellTiter-Glo Luminescent Cell Viability Assay)", "setting": "[1]; Cpd 25 uM", "value": "4560 and 5520 and 5324"}, {"measurement": "Macrophage viability (CellTiter-Glo Luminescent Cell Viability Assay)", "setting": "[1]; Cpd 50 uM", "value": "4580 and 5420 and 4932"}, {"measurement": "toxicity to macrophages", "setting": "[1]; dose as high as 50 μM", "value": "showed toxicity"}, {"measurement": "toxicity to macrophages", "setting": "[1]; dose lower than 10 μM", "value": "little toxic"}, {"measurement": "Mean Fluorescence Intensity (MFI) CD47", "setting": "[2]; 0.008 uM", "value": 8204}, {"measurement": "Mean Fluorescence Intensity (MFI) CD47", "setting": "[2]; 0.04 uM", "value": 8062}, {"measurement": "Mean Fluorescence Intensity (MFI) CD47", "setting": "[2]; 0.2 uM", "value": 8460}, {"measurement": "Mean Fluorescence Intensity (MFI) CD47", "setting": "[2]; 1 uM", "value": 6638}, {"measurement": "Mean Fluorescence Intensity (MFI) CD47", "setting": "[2]; 5 uM", "value": 5229}, {"measurement": "inhibition of CD47 expression", "setting": "[2]; dose of 5 μM", "value": "~50", "unit": "%"}, {"measurement": "Mean Fluorescence Intensity (MFI) Calreticulin", "setting": "[3]; 0.008 uM", "value": 65.8}, {"measurement": "Mean Fluorescence Intensity (MFI) Calreticulin", "setting": "[3]; 0.04 uM", "value": 71.9}, {"measurement": "Mean Fluorescence Intensity (MFI) Calreticulin", "setting": "[3]; 0.2 uM", "value": 88.4}, {"measurement": "Mean Fluorescence Intensity (MFI) Calreticulin", "setting": "[3]; 1 uM", "value": 174}, {"measurement": "Mean Fluorescence Intensity (MFI) Calreticulin", "setting": "[3]; 5 uM", "value": 491}, {"measurement": "increase of the expression level of calreticulin", "setting": "[3]; dose of 5 μM", "value": "about 20 folds"}, {"measurement": "macrophage phagocytosis (untreated = 1.00)", "setting": "[4]; Cpd 0.0016 uM, T4J = 0, R = 0", "value": 1.09}, {"measurement": "macrophage phagocytosis (untreated = 1.00)", "setting": "[4]; Cpd 0.0016 uM, T4J = 0, R = 0.01 ug/ml", "value": 1.63}, {"measurement": "macrophage phagocytosis (untreated = 1.00)", "setting": "[4]; Cpd 0.0016 uM, T4J = 0.1 ug/ml, R = 0", "value": 2.66}, {"measurement": "macrophage phagocytosis (untreated = 1.00)", "setting": "[4]; Cpd 0.0016 uM, T4J = 0.1 ug/ml, R = 0.01 ug/ml", "value": 3.26}, {"measurement": "macrophage phagocytosis (untreated = 1.00)", "setting": "[4]; Cpd 0.008 uM, T4J = 0, R = 0", "value": 1.07}, {"measurement": "macrophage phagocytosis (untreated = 1.00)", "setting": "[4]; Cpd 0.008 uM, T4J = 0, R = 0.01 ug/ml", "value": 1.73}, {"measurement": "macrophage phagocytosis (untreated = 1.00)", "setting": "[4]; Cpd 0.008 uM, T4J = 0.1 ug/ml, R = 0", "value": 2.69}, {"measurement": "macrophage phagocytosis (untreated = 1.00)", "setting": "[4]; Cpd 0.008 uM, T4J = 0.1 ug/ml, R = 0.01 ug/ml", "value": 3.18}, {"measurement": "macrophage phagocytosis (untreated = 1.00)", "setting": "[4]; Cpd 0.04 uM, T4J = 0, R = 0", "value": 1.12}, {"measurement": "macrophage phagocytosis (untreated = 1.00)", "setting": "[4]; Cpd 0.04 uM, T4J = 0, R = 0.01 ug/ml", "value": 1.71}, {"measurement": "macrophage phagocytosis (untreated = 1.00)", "setting": "[4]; Cpd 0.04 uM, T4J = 0.1 ug/ml, R = 0", "value": 2.76}, {"measurement": "macrophage phagocytosis (untreated = 1.00)", "setting": "[4]; Cpd 0.04 uM, T4J = 0.1 ug/ml, R = 0.01 ug/ml", "value": 3.29}, {"measurement": "macrophage phagocytosis (untreated = 1.00)", "setting": "[4]; Cpd 0.2 uM, T4J = 0, R = 0", "value": 1.16}, {"measurement": "macrophage phagocytosis (untreated = 1.00)", "setting": "[4]; Cpd 0.2 uM, T4J = 0, R = 0.01 ug/ml", "value": 1.69}, {"measurement": "macrophage phagocytosis (untreated = 1.00)", "setting": "[4]; Cpd 0.2 uM, T4J = 0.1 ug/ml, R = 0", "value": 2.57}, {"measurement": "macrophage phagocytosis (untreated = 1.00)", "setting": "[4]; Cpd 0.2 uM, T4J = 0.1 ug/ml, R = 0.01 ug/ml", "value": 3.13}, {"measurement": "macrophage phagocytosis (untreated = 1.00)", "setting": "[4]; Cpd 1 uM, T4J = 0, R = 0", "value": 1.30}, {"measurement": "macrophage phagocytosis (untreated = 1.00)", "setting": "[4]; Cpd 1 uM, T4J = 0, R = 0.01 ug/ml", "value": 1.94}, {"measurement": "macrophage phagocytosis (untreated = 1.00)", "setting": "[4]; Cpd 1 uM, T4J = 0.1 ug/ml, R = 0", "value": 2.70}, {"measurement": "macrophage phagocytosis (untreated = 1.00)", "setting": "[4]; Cpd 1 uM, T4J = 0.1 ug/ml, R = 0.01 ug/ml", "value": 3.45}, {"measurement": "phagocytic ability of macrophages", "setting": "[4]; agent itself or antibody combination", "value": "can also enhance the phagocytic ability of macrophages"}, {"measurement": "phagocytic ability of macrophages", "setting": "[4]; triple combination: T4J, Rituximab and the small molecule", "value": "enhances the phagocytic ability of macrophages much higher"}]}]}
